Five compounds from patent US20040147545A1, “Derivatives of oxazolidinones as antibacterial agents” (priority 2001, published 2004) can be followed below.

Values after ≈ are worked out from the molar mass of the structure shown. Where only a bound is given, the exact number is not on record here.

Holding throughout (assay type): cell-based
One test concerns B. fragilis. Briefly: Antibacterial activity, microdilution in culture broth (NCCLS), strain G (anaerobic). The following applies: Bacteroides fragilis, anaerobic hospital strain, inoculum 5×10^5 UFC/ml. The text has this:
(§1) The antibacterial activity of the new synthesised compounds on the various strains of the bacterial species was implemented using the technique of microdilution in culture broth according to the regulations of the National Committee for Clinical Laboratory Standards (NCCLS), (NCCLS. 1993. Methods for dilution antimicrobial susceptibility tests for bacteria that grow aerobically. Approved standard M7-A3. NCCLS, Vilanova. Pa., and NCCLS. 1993. Methods for dilution antimicrobial susceptibility tests for anaerobic bacteria […]. Approved standard M1-A3. NCCLS, Vilanova. Pa.).
(§2) The inoculum used was 5×10^5 UFC/ml following dilution of the cultures overnight in the exponential phase of bacterial growth.
(§3) The MIC expressed in mg/l was defined as the minimum concentration of antibiotic which inhibited any visible growth.
(§4) Linezolid was included as comparative compound.
(§5) The compounds were tested on the strains of G(+) and G(−) bacteria set out in Table 1, in which: […]
For orientation: Broth dilution looks for growth in wells or tubes with falling amounts of substance.

The subject of the next test is M. Catarrahalis. Nature of the test: Antibacterial activity, microdilution in culture broth (NCCLS), strain J. The following applies: G (−) hospital strain, inoculum 5×10^5 UFC/ml.
Excerpt: as §1, §2, §3, §4, §5

The test system of another test is S. epidermidis. Briefly: Antibacterial activity, microdilution in culture broth (NCCLS), strain E. The following applies: Staphylococcus epidermidis, G (+) hospital strain, inoculum 5×10^5 UFC/ml.
Excerpt: as §1, §2, §3, §4, §5

Test [1] relates to E. faecalis resistant to vancomycin. Briefly: Antibacterial activity, microdilution in culture broth (NCCLS), strain B. The conditions noted are these: Enterococcus faecalis, G (+) hospital strain, inoculum 5×10^5 UFC/ml.
Excerpt: as §1, §2, §3, §4, §5

In a further test the test system is H. influenzae. Briefly: Antibacterial activity, microdilution in culture broth (NCCLS), strain I. The following applies: Haemophilus influenzae, G (−) hospital strain, inoculum 5×10^5 UFC/ml.
Excerpt: as §1, §2, §3, §4, §5

The next test has as its system E. coli. Briefly: Antibacterial activity, microdilution in culture broth (NCCLS), strain H. The following applies: Escherichia coli, G (−) hospital strain, inoculum 5×10^5 UFC/ml.
Excerpt: as §1, §2, §3, §4, §5

The test system of another test is S. agalactiae. Nature of the test: Antibacterial activity, microdilution in culture broth (NCCLS), strain D. The following applies: Streptococcus agalactiae, G (+) hospital strain, inoculum 5×10^5 UFC/ml.
Excerpt: as §1, §2, §3, §4, §5

The test system of test [2] is S. aureus resistant to meticillin. Briefly: Antibacterial activity, microdilution in culture broth (NCCLS), strain A. The conditions noted are these: Staphylococcus aureus, G (+) hospital strain, inoculum 5×10^5 UFC/ml.
Excerpt: as §1, §2, §3, §4, §5

For another test, the system named is S. pyogenes. Briefly: Antibacterial activity, microdilution in culture broth (NCCLS), strain F. The conditions noted are these: Streptococcus pyogenes, G (+) hospital strain, inoculum 5×10^5 UFC/ml.
Excerpt: as §1, §2, §3, §5

Test [3] relates to S. pneumoniae resistant to penicillin. Nature of the test: Antibacterial activity, microdilution in culture broth (NCCLS), strain C. The conditions noted are these: Streptococcus pneumoniae, G (+) hospital strain, inoculum 5×10^5 UFC/ml.
Excerpt: as §1, §2, §3, §4, §5

Take `CCOC(=O)c1cn(CCF)c2c(F)c(N3CCN(c4ccc(N5C[C@H](CNC(C)=O)OC5=O)cc4F)CC3)c(F)cc2c1=O` [EXAMP. 17, 7-(4-{4-[5-(S)-(acetylamino-methyl)-2-oxo-oxazolidin-3-yl]-2-fluoro-phenyl}-piperazin-1-yl)-6,8-difluoro-1-(2-fluoro-ethyl)-4-oxo-1,4-dihydro-quinoline-3-carboxylic Acid Ethyl Ester]: the MIC in the test on B. fragilis was 4 µg/mL (≈ 6.31 µM); in the test with M. Catarrahalis, 4 µg/mL (≈ 6.31 µM); in the test on S. epidermidis, 1 µg/mL (≈ 1.58 µM); in [1] it was 2 µg/mL (≈ 3.16 µM); against H. influenzae, 64 µg/mL (≈ 101 µM); in the test with E. coli it was above 64 µg/mL. For the same compound, the MIC in the test with S. agalactiae is 0.5 µg/mL (≈ 0.789 µM); in [2] it was 2 µg/mL (≈ 3.16 µM); in the test on S. pyogenes, 1 µg/mL (≈ 1.58 µM); in [3] it was 0.5 µg/mL (≈ 0.789 µM).

In the case of `C#CC(O)[C@H]1CN(c2ccc(N3CCN(c4nc5c(cc4F)c(=O)c(C(=O)O)cn5-c4ccc(F)cc4F)CC3)c(F)c2)C(=O)O1` (stereo partly drawn) [EXAMP. 19, 1-(2,4-difluoro-phenyl)-6-fluoro-7-(4-{2-fluoro-4-[5-(R)-(1-hydroxy-prop-2-inyl)-2-oxo-oxazolidin-3-yl]-phenyl}-piperazin-1-yl)-4-oxo-1,4-dihydro-[1,8]Naphthyridine-3-carboxylic Acid], the MIC is above 64 µg/mL in the test on B. fragilis; 2 µg/mL (≈ 3.14 µM) against M. Catarrahalis; 4 µg/mL (≈ 6.27 µM) with S. epidermidis; 8 µg/mL (≈ 12.5 µM) in test [1]; 1 µg/mL (≈ 1.57 µM) in the test on H. influenzae; 32 µg/mL (≈ 50.2 µM) against E. coli. In addition, the MIC in the test with S. agalactiae was 8 µg/mL (≈ 12.5 µM); in test [2] it was 4 µg/mL (≈ 6.27 µM); against S. pyogenes, 8 µg/mL (≈ 12.5 µM); in test [3] it was 4 µg/mL (≈ 6.27 µM).

As to `CC(=O)NC[C@H]1CN(c2ccc(N3CCN(c4nc5c(cc4F)c(=O)c(C(=O)O)cn5-c4ccc(F)cc4F)CC3)c(F)c2)C(=O)O1` [EXAMP. 20, 7-(4-{4-[5-(S)-(acetylamino-methyl)-2-oxo-oxazolidin-3-yl]-2-fluoro-phenyl}-piperazin-1-yl)-1-(2,4-difluoro-phenyl)-6-fluoro-4-oxo-1,4-dihydro-[1,8]Naphthyridine-3-carboxylic Acid], the MIC against B. fragilis is above 64 µg/mL; against M. Catarrahalis it was 4 µg/mL (≈ 6.11 µM); against S. epidermidis, 0.5 µg/mL (≈ 0.764 µM); in test [1], 2 µg/mL (≈ 3.06 µM); against H. influenzae it was 2 µg/mL (≈ 3.06 µM); against E. coli it was above 64 µg/mL. Moreover, the MIC (against S. agalactiae; in [2]; with S. pyogenes; in test [3]) was 1 µg/mL (≈ 1.53 µM) each time.

Consider `CC(=O)NC[C@H]1CN(c2ccc(N3CCN(c4nc5c(cc4F)c(=O)c(C(=O)O)cn5C4CC4)CC3)c(F)c2)C(=O)O1` [EXAMP. 21, 7-(4-{4-[5-(S)-(acetylamino-methyl)-2-oxo-oxazolidin-3-yl]-2-fluoro-phenyl}-piperazin-1-yl)-1-cyclopropyl-6-fluoro-4-oxo-1,4-dihydro-[1,8]Naphthyridine-3-carboxylic Acid], for which the MIC against B. fragilis was 0.25 µg/mL (≈ 0.429 µM); against M. Catarrahalis, 0.5 µg/mL (≈ 0.858 µM); in the test with S. epidermidis it was below 0.125 µg/mL; in test [1], below 0.125 µg/mL; against H. influenzae, 2 µg/mL (≈ 3.43 µM); in the test with E. coli, 64 µg/mL (≈ 110 µM). Moreover, the MIC in the test with S. agalactiae is below 0.125 µg/mL; in test [2], 0.25 µg/mL (≈ 0.429 µM); with S. pyogenes it was below 0.125 µg/mL; in [3], below 0.125 µg/mL.

As for `CC(=O)NC[C@H]1CN(c2ccc(N3CCN(c4c(F)cc5c(=O)c(C(=O)O)cn(CCF)c5c4F)CC3)c(F)c2)C(=O)O1` [EXAMP. 22, 7-(4-{4-[5-(S)-(acetylamino-methyl)-2-oxo-oxazolidin-3-yl]-2-fluoro-phenyl}-piperazin-1-yl)-6,8-difluoro-1-(2-fluoro-ethyl)-4-oxo-1,4-dihydro-quinoline-3-carboxylic Acid], the MIC in the test on B. fragilis was 0.5 µg/mL (≈ 0.826 µM); in the test on M. Catarrahalis it was 0.5 µg/mL (≈ 0.826 µM); in the test on S. epidermidis it was below 0.125 µg/mL; in test [1] it was below 0.125 µg/mL; against H. influenzae, 2 µg/mL (≈ 3.3 µM); with E. coli, 64 µg/mL (≈ 106 µM). Also, the MIC with S. agalactiae was below 0.125 µg/mL; in [2] it was below 0.125 µg/mL; with S. pyogenes, below 0.125 µg/mL; in [3], 0.25 µg/mL (≈ 0.413 µM).
